Data set [1] has as its system human hepatocytes. Kind of data set: Metabolism identification study in human hepatocytes. As to conditions: for Relative Proportion of compounds identified: 5-MeO-DMT free base 10 μM, up to 120 minutes. The procedure: For incubations with cryopreserved hepatocytes, the 2 mM stock solution was diluted with Leibovitz L-15 medium to a concentration of 20 μM or 2 μM. An aliquot (250 μL) of the 20 μM and 2 μM test substance formulations was added to each hepatocyte incubation sample (250 μL), as appropriate, so that the final test substance concentration in the incubations was 10 μM or 1 μM, respectively, and incubations contained less than 1% (v/v) solvent.
Incubations were performed at ca. 37° C. in a shaking water bath (total incubation volume 0.5 mL). For 1 μM, incubations were terminated after 0, 5, 10, 20, 30, 60 and 120 minutes, by the addition of ice-cold acetonitrile (0.5 mL).
The samples were vortex mixed and centrifuged at ca 13,000 rpm for 10 minutes at room temperature. Following centrifugation, the protein-free supernatants were removed for analysis.
Blank control incubations were carried out with Leibovitz L-15 medium in place of the test substance. No cells control samples were performed with Leibovitz L-15 medium in place of hepatocytes. Aliquots of the blank control samples were taken at 120 minutes, while no cells control samples were taken at 0, 30 and 120 for 1 μM incubations and at 0 and 120 minutes for 10 μM incubations.
All 1 μM incubations were performed in duplicate, while all 10 μM incubations were performed in singlet. All samples were stored at −80° C. (nominal) prior to analysis.
Prior to sample analysis a 100 μL aliquot of each sample was evaporated to near dryness under a steady stream of nitrogen at room temperature, and subsequently reconstituted in 50 μL of mobile phase A (0.1% formic acid in water). Each sample (0, 30 and 120-minute, 10 μM) was analysed using accurate mass LC-MS to determine relative levels of parent compound at each time-point, and determine the profile of metabolites formed. Appropriate blank and control samples were also analysed. The 10 and 60-minute, 10 μM incubation samples were not analysed and were stored at −80° C. (nominal).
Data were interrogated for the presence of metabolites by comparison of retention times with the test substance reference standard and based on the accurate masses of potential metabolites using screening software (UNIFI version 1.9.4), and user defined search parameters. To confirm a suspected metabolite, the measured accurate mass of the peak detected in the sample used for structural elucidation had to be within 5 ppm of the theoretical mass in order to confirm the molecular formula.

The test system of data set [2] is human plasma protein. Kind of data set: Binding of 5-MIAA to human plasma protein. The data set is classed as in vitro ADME. The procedure: Binding to human plasma protein was determined. Reported are the unbound fraction (fu) for three replicates as well as the mean unbound fraction, the standard deviation and the mean % recovery (Table 8).
The test system of data set [3] is human hepatocytes. The data set is described as follows: Metabolic stability in Hμrel human hepatocyte co-culture assay.
Data set [4] can be described thus: Water solubility. The data set is classed as physicochemical.
The conditions of data set [5]: rat; cited from earlier work.
Data set [6] in a line: Pharmacokinetics of 5-MeO-DMT and bufotenine after a single inhaled dose. The data set is classed as in vivo, human. Conditions: 15 minutes after administration of 5-MeO-DMT. The protocol: Blood samples were obtained at 1; 2; 4; 7; 10; 15; 20; 30; 45 min and 1; 1.5; 2; 3; 4 hours after administration.
PK parameters were generated by algebraic analysis of the concentration versus time plots for each individual. The analysis was carried out using the software Phoenix WinNonlin 6.3.

5-Methoxyindole acetic acid [5-MIAA]: the “Presence in subsequent assays” value in data set [1] is given as “predominant metabolite”. Besides, the “Plasma binding (mean fraction unbound)” value in data set [2] was ~50%. Moreover, the “Time until removed from circulation for urinary excretion” value in data set [2] (assuming glomerular filtration rate 90-120 ml/min) lay in the range of 1 to 2 h. In addition, the Remaining abundance in data set [3] (after 72 h, hepatocytes, 1 and 10 μM) is listed as 75-82%. In addition, in data set [3] (hepatocytes), the Metabolic turnover entry is reported as “low metabolic turnover”. In data set [3] (stromal cells), the “Disappearance with stromal cell controls” value is “no disappearance”.
`COc1ccc2[nH]cc(CC[N+](C)(C)[O-])c2c1` [5-MeO-DMT-N-oxide]: the “Relative Proportion of compounds identified” value (from here on “Relative Proportion”) in data set [1] is 1%. Moreover, the Water solubility result in data set [4] is on record as “water soluble”. Moreover, the Excretion result in data set [5] is given as “rapid excretion”.
For the compound `COc1ccc2[nH]cc(CCO)c2c1` [5-methoxytryptophol, 5-Methoxyindole-3-ethanol], in data set [1], the “Relative Proportion” value amounted to 25% and the “Presence in subsequent assays” value is reported as “failed to detect”. Moreover, in data set [3] (hepatocytes), the Metabolic turnover result is given as “high metabolic turnover” and the “Time to complete disappearance” value worked out at 24 h.
Consider `CN(C)CCc1c[nH]c2ccc(O[C@@H]3O[C@H](C(=O)O)[C@@H](O)[C@H](O)[C@H]3O)cc12` [Bufotenine glucuronide], for which the “Detection in the hepatocyte assay” value in data set [1] is reported as “not detected”.
In the case of `CN(C)CCc1c[nH]c2ccc(O)cc12` [bufotenine, Bufotenine], the “Detection in human serum” value in data set [6] is listed as “In no case is it detected”. Moreover, in data set [1], the “Relative Proportion” value is on record as 5%.
